Measured values taken from patent US9156858B2, “Boronic acid derivatives and therapeutic uses thereof” (priority 2012, dated 2015).
Read-outs that look alike come from different tables or passages of the source.

What was measured:
ec308 (SHV-5) [1] = test: Aztreonam MIC of test strain; type: cell-based; conditions: read-out: Aztreonam MIC
ECL1002 (class C) [2] = test: Aztreonam MIC of test strain; type: cell-based; conditions: read-out: Aztreonam MIC
KP1007 (OXA-10) [3] = test: Aztreonam potentiation (MPC@4); type: cell-based; conditions: BLI concentration inhibiting growth with 4 μg/mL aztreonam; class D
ec302 (TEM-10) [4] = test: Tigemonam potentiation (MPC@4); type: cell-based; conditions: BLI concentration inhibiting growth with 4 μg/mL tigemonam; class A
KP1007 (OXA-10) [5] = test: Tigemonam potentiation (MPC@4); type: cell-based; conditions: BLI concentration inhibiting growth with 4 μg/mL tigemonam; class D
ec308 (SHV-5) [6] = test: Aztreonam potentiation (MPC@4); type: cell-based; conditions: BLI concentration inhibiting growth with 4 μg/mL aztreonam; class A
EC1010 (CMY-6) [7] = test: Tigemonam potentiation (MPC@4); type: cell-based; conditions: BLI concentration inhibiting growth with 4 μg/mL tigemonam; class C
KP1009 (CTX-M-15) [8] = test: Aztreonam potentiation (MPC@4); type: cell-based; conditions: BLI concentration inhibiting growth with 4 μg/mL aztreonam; class A
KP1010 (SHV-12) [9] = test: Aztreonam potentiation (MPC@4); type: cell-based
EC1010 (CMY-6) [10] = test: Aztreonam potentiation (MPC@4); type: cell-based; conditions: BLI concentration inhibiting growth with 4 μg/mL aztreonam; class C
KP1005 (CTX-M-14) [11] = test: Aztreonam potentiation (MPC@4); type: cell-based; conditions: BLI concentration inhibiting growth with 4 μg/mL aztreonam; class A
CMY-2 = CMY-2 (Klebsiella pneumoniae, UniProt Q48434); test: biochemical
Chain of CMY-2 (Q48434 21-381): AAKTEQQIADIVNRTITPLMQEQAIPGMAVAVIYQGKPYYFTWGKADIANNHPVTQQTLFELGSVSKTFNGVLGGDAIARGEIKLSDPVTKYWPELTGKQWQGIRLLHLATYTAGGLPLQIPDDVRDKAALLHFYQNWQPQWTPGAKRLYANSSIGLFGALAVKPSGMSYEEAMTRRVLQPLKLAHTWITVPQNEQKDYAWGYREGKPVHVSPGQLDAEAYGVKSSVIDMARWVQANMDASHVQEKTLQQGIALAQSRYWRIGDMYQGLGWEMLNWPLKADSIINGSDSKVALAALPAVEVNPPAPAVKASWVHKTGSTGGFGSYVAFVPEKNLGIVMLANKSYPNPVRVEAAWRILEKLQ

OXA-48 = OXA-48 (Klebsiella pneumoniae, UniProt Q6XEC0); test: Inhibition of nitrocefin cleavage by purified enzyme; type: biochemical
Chain of OXA-48 (Q6XEC0 23-265 limits assumed): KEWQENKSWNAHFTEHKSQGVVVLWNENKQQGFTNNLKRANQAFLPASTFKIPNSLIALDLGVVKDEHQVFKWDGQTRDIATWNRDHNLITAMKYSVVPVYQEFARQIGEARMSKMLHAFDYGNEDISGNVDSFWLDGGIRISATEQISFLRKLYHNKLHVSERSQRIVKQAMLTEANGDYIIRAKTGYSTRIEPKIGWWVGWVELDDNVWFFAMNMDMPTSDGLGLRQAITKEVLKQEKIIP
Procedure: (§1) Ki values of inhibition of purified class A, C and D enzymes were determined spectrophotometrically using nitrocefin as reporter substratre. Purified enzymes were mixed with various concentrations of inhibitors in reaction buffer and incubated for 10 min at room temperature. Nitrocefin was added and substrate cleavage profiles were recorded at 490 nm every 10 sec for 10 min.

CTX-M-14 = CTX-M-14 (Escherichia coli, UniProt Q9L5C7); test: as above; type: biochemical; conditions: nitrocefin reporter substrate, 10 min preincubation, read-out: Ki (CTX-M-14, NCF)
Chain of CTX-M-14 (Q9L5C7 entry or part of it): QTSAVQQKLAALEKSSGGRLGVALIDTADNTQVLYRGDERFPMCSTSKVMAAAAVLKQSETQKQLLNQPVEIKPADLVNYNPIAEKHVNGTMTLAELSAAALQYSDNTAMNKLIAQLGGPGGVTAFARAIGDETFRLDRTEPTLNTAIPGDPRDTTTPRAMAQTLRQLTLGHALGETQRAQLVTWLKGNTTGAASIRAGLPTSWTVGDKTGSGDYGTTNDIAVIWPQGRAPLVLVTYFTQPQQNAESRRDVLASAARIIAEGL
Procedure: as §1

KPC-2 = KPC-2 (Klebsiella pneumoniae, UniProt Q9F663); test: as above; type: biochemical
Chain of KPC-2 (Q9F663 25-293 limits assumed): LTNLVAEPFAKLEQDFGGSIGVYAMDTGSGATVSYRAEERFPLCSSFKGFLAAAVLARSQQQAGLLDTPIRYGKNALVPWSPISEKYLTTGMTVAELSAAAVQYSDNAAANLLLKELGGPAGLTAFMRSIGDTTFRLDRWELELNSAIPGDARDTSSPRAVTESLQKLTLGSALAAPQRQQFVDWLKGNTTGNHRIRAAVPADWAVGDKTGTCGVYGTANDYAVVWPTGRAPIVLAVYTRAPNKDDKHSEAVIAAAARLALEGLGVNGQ
Procedure: as §1

KP1010 (SHV-12) [12] = test: Tigemonam potentiation (MPC@4); type: cell-based; conditions: BLI concentration inhibiting growth with 4 μg/mL tigemonam; class A
KPX1001 (OXA-2) = test: Aztreonam potentiation (MPC@4); type: cell-based; conditions: BLI concentration inhibiting growth with 4 μg/mL aztreonam; class D
ECL1002 (class C) [13] = test: Aztreonam potentiation (MPC@4); type: cell-based; conditions: BLI concentration inhibiting growth with 4 μg/mL aztreonam
ECL1002 (class C) [14] = test: Tigemonam potentiation (MPC@4); type: cell-based; conditions: BLI concentration inhibiting growth with 4 μg/mL tigemonam
KP1004 (KPC-2) = test: Aztreonam potentiation (MPC@4); type: cell-based; conditions: BLI concentration inhibiting growth with 4 μg/mL aztreonam; class A
ec302 (TEM-10) [15] = test: Aztreonam potentiation (MPC@4); type: cell-based; conditions: BLI concentration inhibiting growth with 4 μg/mL aztreonam; class A
KP1009 (CTX-M-15) [16] = test: Tigemonam potentiation (MPC@4); type: cell-based; conditions: BLI concentration inhibiting growth with 4 μg/mL tigemonam; class A
ec308 (SHV-5) [17] = test: Tigemonam potentiation (MPC@4); type: cell-based; conditions: BLI concentration inhibiting growth with 4 μg/mL tigemonam; class A
KP1005 (CTX-M-14) [18] = test: Tigemonam potentiation (MPC@4); type: cell-based; conditions: BLI concentration inhibiting growth with 4 μg/mL tigemonam; class A
P99 /AmpC of ECL = P99 /AmpC of ECL (Enterobacter cloacae, UniProt P05364); test: biochemical; conditions: purified enzyme, nitrocefin reporter substrate, 10 min preincubation; read-out: Ki (P99 /AmpC of ECL, NCF)
Chain of P99 /AmpC of ECL (P05364 21-381): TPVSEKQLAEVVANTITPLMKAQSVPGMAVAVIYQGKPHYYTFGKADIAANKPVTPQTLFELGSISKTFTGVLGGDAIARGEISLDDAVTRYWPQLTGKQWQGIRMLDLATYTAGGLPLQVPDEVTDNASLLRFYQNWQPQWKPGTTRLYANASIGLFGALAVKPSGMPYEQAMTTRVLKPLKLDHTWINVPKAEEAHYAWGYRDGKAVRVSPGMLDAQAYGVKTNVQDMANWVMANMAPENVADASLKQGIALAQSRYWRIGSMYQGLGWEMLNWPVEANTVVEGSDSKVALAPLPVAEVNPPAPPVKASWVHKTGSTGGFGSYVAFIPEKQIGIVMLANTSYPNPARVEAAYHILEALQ

SHV-12 = SHV-12 (Klebsiella pneumoniae, UniProt P0AD64, E235K/G234S/L31Q); test: Inhibition of nitrocefin cleavage by purified enzyme; type: biochemical; conditions: nitrocefin reporter substrate, 10 min preincubation, read-out: Ki (SHV-12, NCF)
Chain of SHV-12 (P0AD64 22-286 L31Q/G234S/E235K): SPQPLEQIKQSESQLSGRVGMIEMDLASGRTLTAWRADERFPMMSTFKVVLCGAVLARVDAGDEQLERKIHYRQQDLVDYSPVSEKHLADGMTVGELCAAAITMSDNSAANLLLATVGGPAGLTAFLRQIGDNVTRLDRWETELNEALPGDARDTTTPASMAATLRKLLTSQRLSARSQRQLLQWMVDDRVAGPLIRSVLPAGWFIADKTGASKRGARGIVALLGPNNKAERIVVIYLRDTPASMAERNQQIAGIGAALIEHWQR
Procedure: as §1

KP1005 (CTX-M-14) [19] = test system: KP1005 (CTX-M-14)
KP1007 (OXA-10) [20] = test: Tigemonam MIC of test strain; conditions: strain KP1007, OXA-10, class D
ec302 (TEM-10) [21] = test: Tigemonam MIC of test strain
KP1010 (SHV-12) [22] = test: Tigemonam MIC of test strain
EC1010 (CMY-6) [23] = test: Tigemonam MIC of test strain; conditions: strain EC1010, CMY-6, class C
ECL1002 (class C) [24] = conditions: strain ECL1002, class C
[25] = BLI concentration inhibiting growth with 4 μg/mL aztreonam, class A
[26] = purified enzyme, nitrocefin reporter substrate, 10 min preincubation, read-out: Ki (CMY-2, NCF)
[27] = purified enzyme, nitrocefin reporter substrate, 10 min preincubation, read-out: Ki (OXA-48, NCF)
[28] = purified enzyme, nitrocefin reporter substrate, 10 min preincubation, read-out: Ki (KPC-2, NCF)

| Structure (SMILES) | AZT MPC@4 OXA-10, KP1007 (KP1007 (OXA-10) [3]) [µg/mL] | MPC4 TEM-10 ec302 (ec302 (TEM-10) [4]) [µg/mL] | MPC4 OXA-10, KP1007 (KP1007 (OXA-10) [5]) | AZT MPC4 SHV-5 ec308 (ec308 (SHV-5) [6]) [µg/mL] | MPC4 CMY-6, EC1010 (EC1010 (CMY-6) [7]) [µg/mL] | AZT MPC4 CTX-M-15 KP1009 (KP1009 (CTX-M-15) [8]) [µg/mL] | AZT MPC4 SHV-12 KP1010 (KP1010 (SHV-12) [9]; [25]) [µg/mL] | AZT MPC@4 CMY-6 EC1010 (EC1010 (CMY-6) [10]) [µg/mL] | AZT MPC4 CTX-M-14 KP1005 (KP1005 (CTX-M-14) [11]) [µg/mL] | Ki (CMY-2; [26]) [nM] | Ki (OXA-48; [27]) [nM] | MPC4 SHV-12 KP1010 (KP1010 (SHV-12) [12]) | AZT MPC@4 OXA-2, KPX1001 (KPX1001 (OXA-2)) [µg/mL] | AZT MPC@4 ECL1002 (ECL1002 (class C) [13]) [µg/mL] | MPC4 ECL1002 (ECL1002 (class C) [14]) [µg/mL] | AZT MPC4 KPC-2 KP1004 (KP1004 (KPC-2)) [µg/mL] | AZT MPC4 TEM-10 ec302 (ec302 (TEM-10) [15]) [µg/mL] | MPC4 CTX-M-15 KP1009 (KP1009 (CTX-M-15) [16]) [µg/mL] | MPC4 SHV-5 ec308 (ec308 (SHV-5) [17]) | MPC4 CTX-M-14 KP1005 (KP1005 (CTX-M-14) [18]) [µg/mL] | also measured |
| --- | --- | --- | --- | --- | --- | --- | --- | --- | --- | --- | --- | --- | --- | --- | --- | --- | --- | --- | --- | --- | --- |
| C[C@H]1[C@H](NC(=O)/C(=N\OC(C)(C)C(=O)O)c2csc(N)n2)C(=O)N1S(=O)(=O)O [Aztreonam] |  |  |  |  |  |  |  |  |  |  |  |  |  |  |  |  |  |  |  |  | MIC (ec308 (SHV-5) [1]): 64 µg/mL; MIC (ECL1002 (class C) [2]): 64 µg/mL |
| O=C(O)[C@H]1/C(=C/CO)O[C@@H]2CC(=O)N21 [Clavulanic Acid] | 0.08 | 2.5 | <=0.6 μg/mL | 0.08 | 40 | 1.25 | 0.04 | 40 | 1.25 | > 100000 | 18600 | <=0.6 μg/mL | 5 | >40 | >40 | >40 | 0.3 | 1.25 | <=0.6 μg/mL | 2.5 | Ki (CTX-M-14): 27 nM; Ki (KPC-2; [28]): 41200 nM |
| O=C(Cc1cccs1)N[C@@H](Cn1cc(C(=O)O)nn1)B(O)O [Compound 1, (R)-1-(2-borono-2-(2-(thiophen-2-yl)acetamido)ethyl)-1H-1,2,3-triazole-4-carboxylic acid] | 0.6 | >40 | 0.3 µg/mL | 0.6 | 0.6 | 10 | 0.3 | 20 | 1.25 | 60 | 23300 | 0.3 µg/mL | 40 | 20 | 5 | 5 | >40 | 1.25 | 2.5 µg/mL | 2.5 | Ki (P99 /AmpC of ECL): 80 nM; Ki (SHV-12): 5 nM; Ki (CTX-M-14): 5 nM; Ki (KPC-2; [28]): 39 nM |
| C[C@]1(Cn2ccnn2)[C@H](C(=O)O)N2C(=O)C[C@H]2S1(=O)=O [Tazobactam] | 5 | 5 | 5 µg/mL | 10 | 2.5 | 20 |  | 20 | 10 |  |  | 1.25 µg/mL | >40 | >40 | 10 | >40 | 5 | 10 | 5 µg/mL | 10 | AZT MPC4 SHV-12 KP1010 (KP1010 (SHV-12) [9]): 1.25 µg/mL; Ki (CMY-2): 710 nM; Ki (OXA-48): 160 nM; Ki (KPC-2): 1600 nM |
| CC1(C)[C@H](NC(=O)/C(=N\OCC(=O)O)c2csc(N)n2)C(=O)N1OS(=O)(=O)O [Tigemonam] |  |  |  |  |  |  |  |  |  |  |  |  |  |  |  |  |  |  |  |  | Tigemonam MIC (KP1005 (CTX-M-14) [19]): 512 µg/mL; Tigemonam MIC (KP1007 (OXA-10) [20]): >64 µg/mL; Tigemonam MIC (ec302 (TEM-10) [21]): >512 µg/mL; Tigemonam MIC (KP1010 (SHV-12) [22]): 256 µg/mL; Tigemonam MIC (EC1010 (CMY-6) [23]): 16 µg/mL; Tigemonam MIC (ECL1002 (class C) [24]): 32 µg/mL |
